Tests used:
Format in all cases: in vivo, mice (ICR female)
[1] = system: osteocalcin gene; test: Real-time PCR of bone cDNA from OVX mice: osteocalcin expression; conditions: bone RNA of OVX mice after 28 days of tube feed; compared with disease group (OVX+H2O)
Protocol: (§1) 8-week-old ICR female rats were purchased from BioLASCO Taiwan and ovariectomy was performed when they were 9 week-old. Mice were underwent anesthesia and were ovariectomized through back on both sides of the ovaries. All groups were given the test substance by means of tube feed at 4 days after surgery. The groups were divided into a sham operation group (control group, their abdominal cavity were cut but their ovaries were not removed); and 4 groups ovariectomized group (Ovariectomy; OVX). When the mice were sacrificed, the ovarian tissues were checked and confirmed whether the removal of ovarian was successful. The experimental results of the mice under failure operation were not used. […]
(§2) Extraction of tibial RNA: The left femur of the mice were removed, cut into small pieces with scissor, and an appropriate amount of liquid nitrogen was added to grind the bones quickly. […] The solution was placed at room temperature to react for 5 minutes, followed by centrifugalized and extracted the upper layer to new microcentrifuge tubes (eppendorf); 0.25 ml isopropanol was added thereto and the solution was placed at room temperature for 10 minutes and then centrifugalized; the supernatant was removed and the precipitate was washed with 0.5 ml 75% ethanol; after the precipitate was dried, 20-50 μl DEPC water was added to dissolve the precipitate and the RNA concentration was measured. […]

[2] = system: cytokine TGF-β; test: Real-time PCR of bone cDNA from OVX mice: TGF-β expression; conditions: bone RNA of OVX mice after 28 days of tube feed; compared with disease group (OVX+H2O)
Protocol: as §1, §2

[3] = system: osteoclast related gene TRAP-5; test: Real-time PCR of bone cDNA from OVX mice: TRAP-5 expression; conditions: bone RNA of OVX mice after 28 days of tube feed; compared with disease group (OVX+H2O)
Protocol: as §1, §2

[4] = system: ovariectomized (OVX) mice; test: Bone tissue analysis by micro computed tomography of the femur in the osteoporosis mouse model; conditions: right femur, tube feed for 28 days, mean ±SD
Protocol: Experiment 1: Bone tissue analysis
(§3) (1) preparation of viable bacteria: Inoculating the Lactobacillus plantarum GMNL-662 from a frozen tube to 1 ml of MRS broth, and standing under 37° C. for aerobically incubating for 20 hours. The next day, adding 15 μl culture solution into 1.5 ml of MRS broth (1% secondary activation), and then standing under 37° C. for aerobically incubating for 20 hours. Estimating the bacteria number by using OD 600 to adjust the bacteria concentration to 8×10^7 CFU/ml.
as §3, with “(2)” for “(1)”, “dead” for “viable”, “Plantarum strain” for “plantarum”, “4.1×10^8” for “8×10^7”
8-week-old ICR female […] were purchased from BioLASCO Taiwan and ovariectomy was performed when they were 9 week-old. Mice were underwent anesthesia and were ovariectomized through back on both sides of the ovaries. All groups were given the test substance by means of tube feed at 4 days after surgery. The groups were divided into a sham operation group (control group, their abdominal cavity were cut but their ovaries were not removed); and 4 groups ovariectomized group (Ovariectomy; OVX). When the mice were sacrificed, the ovarian tissues were checked and confirmed whether the removal of ovarian was successful. The experimental results of the mice under failure operation were not used. […] The mice were given 0.1 ml per 10 grams of body weight and 4 times a week. The remaining two groups were fed with 0.2 ml of alive GMNL-662 (strain concentration is 8×10^7 cfu/ml; daily dose of the mouse is 1.6×10^7 cfu/mouse, the human dose is 4×10^9 cfu/60 kg adult), and 0.2 ml of dead GMNL-662 (strain concentration is 4.1×10^8 cfu/ml; daily dose of the mouse is 8.2×10^7 cells/mouse, the human dose is 2×10^10 cells/60 kg adult). The two groups were fed with tube one time every day, continued for 28 days, the mice were anesthetized and sacrificed for intraperitoneal cephalic vein sampling, and each femur was removed for analysis.
The backbone of the right femur far from the end was taken a computer tomography by a micro computed tomography (SkyScan 1076, Kontizh, Belgium, with resolution of 18 μm), and the trabecular bone volume ratio (i.e. bone volume/tissue volume) is analyzed by a software. The analyzed position was selected to include the area of 100 pieces under the growth plate excluding cortical bone. The bone mineral density analysis was applied to the same area. The obtained data in the experiments were analyzed with two-way analysis of variance, and executed T-test statistical analysis. All data were presented as mean ±SD. After comparisons, the abovementioned groups were analyzed statistically and noted by different marks to represent the statistically significant differences (* represents p<0.05; ** represents p<0.01).

[5] = * p<0.05, ** p<0.01, disease group OVX+H2O 0.344 ± 0.04, sham control 0.502 ± 0.04
[6] = * p<0.05, ** p<0.01, disease group OVX+H2O 30.9 ± 1.1, sham control 42.12 ± 2.4

For “Lactobacillus plantarum strain GMNL-662 [GMNL-662 alive]”, which “expression of osteocalcin gene, FIG. 2” value [1] is on record?
Its value is “higher than the disease group”.

And the “expression of cytokine TGF-β (relative to GAPDH), FIG. 1” value [2]?
Its value is “significant increased expression”.

What about the “expression of osteoclast related gene TRAP-5, FIG. 3” value [3] of the same substance?
Its value is “significantly lower”.

And the “Femur bone mineral density (BMD, excluding cortical bone)” value [4, 5]?
The value was 0.488 ± 0.02** g/cm^3.

What about the “Femur bone mineral density (BMD, excluding cortical bone)” value ([4]; * p<0.05, ** p<0.01, disease group OVX+H2O 0.344 ± 0.04, sham control 0.502 ± 0.04, listed as alive GMNL-662) of the same substance?
Its value is “significantly higher”.

And the “Trabecular bone volume ratio (BV/TV, bone volume/tissue volume)” value [4, 6]?
The value was 36.92 ± 1.7** %.

What about the “Trabecular bone volume ratio (BV/TV, bone volume/tissue volume)” value ([4]; * p<0.05, ** p<0.01, disease group OVX+H2O 30.9 ± 1.1, sham control 42.12 ± 2.4, listed as alive GMNL-662) of the same substance?
Its value is “higher than the disease group”.

What does the source list for “Lactobacillus plantarum strain GMNL-662 [GMNL-662 dead]”?
expression of osteocalcin gene, FIG. 2 [1]: higher than the disease group; expression of cytokine TGF-β (relative to GAPDH), FIG. 1 [2]: significant increased expression; expression of osteoclast related gene TRAP-5, FIG. 3 [3]: significantly lower; Femur bone mineral density (BMD, excluding cortical bone) [4, 5]: 0.474 ± 0.01** g/cm^3; Femur bone mineral density (BMD, excluding cortical bone) ([4]; * p<0.05, ** p<0.01, disease group OVX+H2O 0.344 ± 0.04, sham control 0.502 ± 0.04, listed as dead GMNL-662): significantly higher; Trabecular bone volume ratio (BV/TV, bone volume/tissue volume) [4, 6]: 36.8 ± 1.2** %; Trabecular bone volume ratio (BV/TV, bone volume/tissue volume) ([4]; * p<0.05, ** p<0.01, disease group OVX+H2O 30.9 ± 1.1, sham control 42.12 ± 2.4, listed as dead GMNL-662): higher than the disease group
